The record followed here is patent US20220017541A1, “INHIBITORS OF ARGINASE” (Black Belt Tx Ltd, priority 2018, published 2022).

pIC50: −log10 of the molar value. Some results are limits rather than exact numbers.

One assay concerns the target T1, recombinant human ARG2 (Homo sapiens, UniProt P78540).
T1 construct: purchased BPS Bioscience 71659
T1 sequence (P78540 23-354): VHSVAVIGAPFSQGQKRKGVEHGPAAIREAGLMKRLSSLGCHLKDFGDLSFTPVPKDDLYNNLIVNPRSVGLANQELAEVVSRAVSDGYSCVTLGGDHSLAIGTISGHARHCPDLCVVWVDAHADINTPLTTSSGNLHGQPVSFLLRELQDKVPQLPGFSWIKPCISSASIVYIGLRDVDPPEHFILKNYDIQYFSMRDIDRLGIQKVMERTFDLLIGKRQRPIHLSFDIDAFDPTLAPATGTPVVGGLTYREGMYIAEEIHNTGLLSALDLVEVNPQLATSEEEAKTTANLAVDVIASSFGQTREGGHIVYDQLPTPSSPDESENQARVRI
The assay can be described thus: Arginase enzymatic assay in vitro, recombinant human ARG2 (colorimetric urea detection). Type of assay: biochemical. Conditions: recombinant human arginase 2; read-out: IC50 Inh rhARG2. From the text:
(§1) Arginase catalyzes the hydrolysis of L-arginine into L-ornithine and urea. Urea amount produced by this reaction can be detected using a colorimetric assay and used as an indirect measurement of arginase activity. An adapted protocol from (Baggio, R., et al., J Pharmacol Exp Ther, 1999. 290(3): p. 1409-16) was used for the testing the ability of exemplary compounds of the invention to inhibit arginase enzymes from a variety of sources including recombinant human ARG1 and 2, lysates of human red blood cells (RBC) and intact murine macrophages, as described below.
(§2) Compounds of the invention were prepared from powder as 10 mM stock solutions in DMSO and stored in presence of N2 neutral atmosphere at −80° C. For IC50 determination and just before the assay, exemplary compounds were successively diluted to get the following concentrations: 210, 70, 21, 7, 2.1, 0.7, 0.21, 0.07, 0.021, 0.007, 0.0021 and 0.0007 μM (i.e., final concentrations in the wells of 30, 10, 3, 1, 0.3, 0.1, 0.03, 0.01, 0.003, 0.001, 0.0003, 0.0001 μM).
(§3) Assays were run in clear flat bottom 96-well plates (Nunclon, Cat. No. #167008) adding in each well the following solutions in this order: (1) 10 μl of Tris-HCl solution supplemented with 0.1% bovine serum albumin (BSA) containing 1.563 μg/ml recombinant human ARG1 (R&D System, Cat. No. #5868-AR-010), (2) 30 μl of Tris-HCl buffer containing 10 mM MnCl2 and (3) 10 μL of a pre-dilution of each test article or DMSO (vehicle). Compounds were allowed to interact with the enzyme-cofactor complex pre-incubating the plate at 37° C. for 30 min. To start the reaction, 20 μl of 50 mM L-arginine (Sigma Aldrich Cat. #A5006-100G) were added to each well in exception of the blank reaction (see below). All reactions were allowed to happen for 1 h at 37° C. To detect the urea production, reactions were stopped by adding 200 μl of a mixture of reagent A (4 mM o-phthalaldehyde in 50 mM Boric Acid, 1 M Sulfuric Acid, 0.03% Brij-35 (w/v)) and reagent B (4 mM N-(1-naphthyl)ethylenediamine in 50 mM Boric Acid, 1 M Sulfuric Acid, 0.03% Brij-35 (w/v)) in equal proportion. Color product was developed for 1 h at room temperature (RT) protected from light and then absorbance at 520 nm was measured using a Multifunction Microplate Reader (Synergy 4, Bioteck). Blank reactions were carried out by adding the L-arginine substrate only after the addition of mixture A-B. All reactions were carried out in duplicates.
(§4) The inhibition of urea production was calculated subtracting the absorbance from the blank reaction (zero enzymatic urea production) to the absorbance from all reactions and it was expressed as the percentage of the absorbance from the reaction containing the test article with respect to the absorbance from vehicle reaction (maximum of urea production).
For testing inhibitory activity over recombinant human arginase II, 10 μl of Tris-HCl solution supplemented with 0.1% BSA containing 1.5 μg/ml recombinant human ARG2 (BPS Bioscience, Cat. No. #71659) was used instead of ARG1.

For assay [1], the target named is T2, native ARG1 enzyme in lysates of RBC (Homo sapiens, UniProt P05089).
T2 construct: native ARG1 enzyme in lysates of RBC; from tissue; host or cells: human red blood cell lysates from healthy donors
T2 sequence (P05089 1-322): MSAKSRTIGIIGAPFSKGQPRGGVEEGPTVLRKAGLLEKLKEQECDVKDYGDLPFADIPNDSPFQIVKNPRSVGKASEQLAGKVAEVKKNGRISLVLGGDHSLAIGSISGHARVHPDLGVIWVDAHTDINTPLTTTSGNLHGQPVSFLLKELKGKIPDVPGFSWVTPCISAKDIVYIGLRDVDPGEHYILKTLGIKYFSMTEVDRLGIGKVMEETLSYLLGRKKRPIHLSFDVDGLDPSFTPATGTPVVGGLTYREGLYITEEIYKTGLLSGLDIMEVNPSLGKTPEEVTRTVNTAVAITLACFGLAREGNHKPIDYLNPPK
Description: Arginase enzymatic assay in RBC lysates from healthy donors. Type of assay: biochemical. Conditions: human red blood cell lysates; read-out: IC50 Inh RBC.
Excerpt: as §1, §2, §3, §4
For testing inhibitory activity over RBC lysates from healthy donors, 10 μl of Tris-HCl solution supplemented with 0.1% BSA containing 160 μg RBC lysates per well was used instead.

The term pIC50 denotes −log10 of the IC50, conventionally taken in molar units. For the molecule `NC(CCCCB(O)O)(C(=O)O)C1CCN(C2CCCc3cc(Cl)ccc32)CC1` (single isomer, unassigned) [Compound 17, 2-amino-6-borono-2-(1-(6-chloro-1,2,3,4-tetrahydronaphthalen-1-yl)piperidin-4-yl)hexanoic acid], the negative-log IC50 (pIC50) (at recombinant human ARG2; in assay [1]) was above 6.30 each time.
In the case of `NC(CCCCB(O)O)(C(=O)O)C1CCN(C2CCc3ccccc32)CC1` (single isomer, unassigned) [Compound 2, 2-amino-6-borono-2-(1-(2,3-dihydro-1H-inden-1-yl)piperidin-4-yl)hexanoic acid], the pIC50 (at recombinant human ARG2; in assay [1]) was above 6.30 in each case.
Turning to `NC(CCCCB(O)O)(C(=O)O)C1CCN(C2CCCc3ccccc32)CC1` (single isomer, unassigned) [Compound 4, 2-amino-6-borono-2-(1-(1,2,3,4-tetrahydronaphthalen-1-yl)piperidin-4-yl)hexanoic acid], the pIC50 on recombinant human ARG2 was 5.30 to 6.30; in assay [1] it was above 6.30.
The corresponding values for `NC(CCCCB(O)O)(C(=O)O)C1CCN(C2CCc3cc(C(F)(F)F)ccc32)CC1` (single isomer, unassigned) [Compound 85, 2-amino-6-borono-2-[1-[5-(trifluoromethyl)indan-1-yl]-4-piperidyl]hexanoic acid] are above 6.30 and above 6.30.
The corresponding values for `NC(CCCCB(O)O)(C(=O)O)C1CCN(C2CCc3ccccc32)CC1` (centres unmarked) [Compound 1, 2-amino-6-borono-2-(1-(2,3-dihydro-1H-inden-1-yl)piperidin-4-yl)hexanoic acid] are 5.30 to 6.30 and above 6.30.
Turning to `CC(c1ccccc1)N1CCC(C(N)(CCCCB(O)O)C(=O)O)CC1` (single isomer, unassigned) [Compound 10, 2-amino-6-borono-2-(1-(1-phenylethyl)piperidin-4-yl)hexanoic acid], the pIC50 (on recombinant human ARG2; in assay [1]) was above 6.30 each time.
For `NC(CCCCB(O)O)(C(=O)O)C1CCN(C2CCc3cc(Cl)ccc32)CC1` (single isomer, unassigned) [Compound 14, 2-amino-6-borono-2-[1-(5-chloroindan-1-yl)-4-piperidyl]hexanoic acid], the pIC50 (at recombinant human ARG2; in assay [1]) was above 6.30 throughout.
As for `NC(CCCCB(O)O)(C(=O)O)C1CCN(C2CCCc3ccc(F)cc32)CC1` (single isomer, unassigned) [Compound 83, 2-amino-6-borono-2-(1-(7-fluoro-1,2,3,4-tetrahydronaphthalen-1-yl)piperidin-4-yl)hexanoic acid], the pIC50 (on recombinant human ARG2; in assay [1]) was above 6.30 throughout.
For the molecule `NC(CCCCB(O)O)(C(=O)O)C1CCN(C2CCCCc3ccccc32)CC1` (single isomer, unassigned) [Compound 84, 2-amino-6-borono-2-(1-(6,7,8,9-tetrahydro-5H-benzo[7]annulen-5-yl)piperidin-4-yl)hexanoic acid], the figures for the negative-log IC50 (pIC50) (on recombinant human ARG2; in assay [1]) were 5.30 to 6.30 and above 6.30, respectively.
Taken in the same sequence, the figures for `CNC(CCCCB(O)O)(C(=O)O)C1CCN(C2CCCc3ccccc32)CC1` (single isomer, unassigned) [Compound 79, 6-borono-2-(methylamino)-2-(1-(1,2,3,4-tetrahydronaphthalen-1-yl)piperidin-4-yl)hexanoic acid] were above 6.30 and above 6.30.
Taken in the same sequence, the figures for `CC(c1ccccc1)N1CCC(C(N)(CCCCB(O)O)C(=O)O)CC1` (single isomer, unassigned) [Compound 11, 2-amino-6-borono-2-(1-(1-phenylethyl)piperidin-4-yl)hexanoic acid] were below 5.30 and below 5.30.
Taken in the same sequence, the figures for `NC(CCCCB(O)O)(C(=O)O)C1CCN(C2CCCc3ccccc32)CC1` (single isomer, unassigned) [Compound 5, 2-amino-6-borono-2-(1-(1,2,3,4-tetrahydronaphthalen-1-yl)piperidin-4-yl)hexanoic acid] were above 6.30 and above 6.30.
As to `NC(CCCCB(O)O)(C(=O)O)C1CCN(C2CCCc3ccccc32)CC1` (single isomer, unassigned) [Compound 6, 2-amino-6-borono-2-(1-(1,2,3,4-tetrahydronaphthalen-1-yl)piperidin-4-yl)hexanoic acid], the pIC50 (at recombinant human ARG2; in assay [1]) was below 5.30 throughout.
Turning to `CC1(C)OB(CCCCC(N)(C(=O)O)C2CCN(C3CCCc4ccccc43)CC2)OC1(C)C` (centres unmarked) [Compound 77, 2-amino-2-(1-(1,2,3,4-tetrahydronaphthalen-1-yl)piperidin-4-yl)-6-(4,4,5,5-tetramethyl-1,3,2-dioxaborolan-2-yl)hexanoic acid], the negative logarithm of the IC50 (pIC50) was 5.30 to 6.30 on recombinant human ARG2 and above 6.30 in assay [1].
Taken in the same sequence, the figures for `NC(CCCCB(O)O)(C(=O)O)C1CCN(C2CCc3ccccc32)CC1` (single isomer, unassigned) [Compound 3, 2-amino-6-borono-2-(1-(2,3-dihydro-1H-inden-1-yl)piperidin-4-yl)hexanoic acid] were below 5.30 and below 5.30.
The corresponding values for `CC(c1ccccc1)N1CCC(C(N)(CCCCB(O)O)C(=O)O)CC1` (centres unmarked) [Compound 9, 2-amino-6-borono-2-(1-(1-phenylethyl)piperidin-4-yl)hexanoic acid] are 5.30 to 6.30 and above 6.30.
